Reference: the NIST ThermoML archive (doi:10.1021/je700445y)
± gives the expanded uncertainty stated by the source.

Columns and labels:
[1] = Liquid; for mass density: 293.15 K, 101.33 kPa; for vapor or sublimation pressure: Ebulliometric method (Recirculating still)
[2] = refractive index (Na D-line) (dimensionless); conditions: 293.15 K; 101.33 kPa; Liquid; Standard Abbe refractometry

Compound | mass density [1] [kg/m3] | vapor or sublimation pressure ([1]; 443.8 K) [kPa] | refractive index [2] | vapor or sublimation pressure ([1]; 341.8 K) [kPa] | vapor or sublimation pressure ([1]; 398.96 K) [kPa]
C=CCCCCCCCC [1-decene] | 741 ± 1 | 101.33 ± 0.52 | 1.4214 ± 0.00073 |  | 
CCCCCC [hexane] | 660 ± 2 |  | 1.37486 ± 0.00075 | 101.33 ± 0.53 | 
CCCCCCCC [octane] | 708 ± 1 |  | 1.3965 ± 0.00075 |  | 101.33 ± 0.53
